Entries after “also recorded” stand apart in the source; their conditions may differ. Read-outs that look alike come from different tables or passages of the source. Peptide text beside a SMILES is read from it. * marks the point of attachment. Cbz = O=C(OCc1ccccc1)*; Bz = O=C(c1ccccc1)*
Tests used:
PfuCP [1] = biological target: T1, PfuCP (Pyrococcus furiosus, UniProt Q8U3L0); format: biochemical
T1 construct: Pure PfuCP fractions (1391 U.mg^1; 11 mg), as determined by SDS-PAGE, were pooled and stored at −80° C; endogenous in cells; host or cells: Pyrococcus furiosus cell paste; enzyme purified in house by column chromatography
T1 sequence (Q8U3L0 1-499): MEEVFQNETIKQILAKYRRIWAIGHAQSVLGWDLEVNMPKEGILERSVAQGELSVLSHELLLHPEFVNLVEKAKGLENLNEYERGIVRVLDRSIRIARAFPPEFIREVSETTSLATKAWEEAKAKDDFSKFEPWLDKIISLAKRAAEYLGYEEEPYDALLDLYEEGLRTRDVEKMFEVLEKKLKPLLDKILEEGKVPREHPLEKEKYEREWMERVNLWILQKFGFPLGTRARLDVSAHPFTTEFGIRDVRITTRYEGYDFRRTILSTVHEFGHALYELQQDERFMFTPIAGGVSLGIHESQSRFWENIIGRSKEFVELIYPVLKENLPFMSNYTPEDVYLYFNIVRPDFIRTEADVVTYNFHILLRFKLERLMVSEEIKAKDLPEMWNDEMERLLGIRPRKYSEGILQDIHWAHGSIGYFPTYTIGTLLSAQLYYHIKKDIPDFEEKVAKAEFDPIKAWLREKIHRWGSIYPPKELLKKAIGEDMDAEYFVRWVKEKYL
Protocol: (§1) Assay of Enzyme Activity: Unless stated otherwise, enzymatic activity was assayed using 4 μl of enzyme sample in a total volume of 100 μl of 0.1 M KMES buffer (pH 6.5), starting with 2 mM ZAR in the presence of 0.4 mM CoCl2. Polypropylene microcentrifuge tubes were used. The enzyme and substrate were mixed quickly at room temperature and then brought to 80° C.; the equilibration time for the reaction mixture to reach 80° C. was considered negligible relative to the time scale of the assay. The reaction mixture was incubated at 80° C. in a water bath (Neslab EX-200 DD) for 10 minutes followed by quenching on ice. Subsequently, 750 μl of cadmium-ninhydrin reagent (21) was added and the samples were incubated for an additional 5 min at 80° C. for color development followed by quenching on ice. The absorbance was read at 500 nm (HP 8452A diode array spectrophotometer) with an unheated assay mixture containing Cd-ninhydrin reagent serving as the blank. Absorbances were compared with an arginine standard curve in order to calculate specific activities. Stock solutions of ZAR and CoCl2 were prepared in 0.1 M KMES buffer (pH 6.5), and when necessary, dilution of enzyme samples was done in 50 mM Tris-Cl buffer (pH 8.0). All pH adjustments were performed at room temperature. The free amine of the liberated arginine reacts with ninhydrin to yield the chromophore, Ruheman's purple (absorbance at 500 nm).

[2] = system: carboxypeptidase activity in crude extract; assay: Effect of DTT and EDTA on carboxypeptidase activity in crude extract; format: biochemical, Pyrococcus furiosus; settings: preliminary studies
PfuCP [3] = biological target: T1, PfuCP; assay: Hydrolysis of synthetic substrates by PfuCP; format: biochemical; settings: for hydrolysis by PfuCP: initial studies and control experiment; for hydrolysis by PfuCP at longer digestion time: digestion time 30 minutes, not detected under standard conditions
Protocol: as §1
One unit of activity is defined as the amount of enzyme required to generate one μmole of arginine from ZAR in one minute at 80° C. Activity assays for other ZAX amino acid substrates (X=A, D, E, F, G, H, I, K, L, M, N, P, R, S, V, W, Y) were performed under otherwise identical assay conditions; appropriate amino acids were used to prepare standard curves. Spontaneous hydrolysis of the synthetic substrates was not observed at these temperatures. Protein concentrations were quantified by the Bradford assay using bovine serum albumin as the standard.

PfuCP [4] = biological target: T1, PfuCP; assay: Re-activation by metal ions: divalent metal ion dependence of PfuCP activity; format: biochemical; settings: at 80° C.; linear reciprocal plot; read-out: binding constant (Kd) for Co^2+
Protocol: as §1, with “All pH adjustments were performed at room temperature.” left out, “nm). […]” for “nm).”

## O=S(=O)(F)Cc1ccccc1 [PMSF, Phenymethylsulfonyl fluoride]
PfuCP [1]; 1 mM
  effect on PfuCP activity: no effect
PfuCP [1]; concentration not given
  effect on the enzymatic activity of the polypeptide: no effect

## O[C@H](CS)[C@H](O)CS (racemic) [DTT, dithiothreitol]
[2]
  effect on carboxypeptidase activity in crude extract: completely abolished
PfuCP [1]
  reversibility of inhibition: fully reversible
PfuCP [1]; 2 mM
  effect on PfuCP activity: not observed

## NC(N)=NCCC[C@H](NC(=O)CNC(=O)c1ccccc1)C(=O)O [hippuryl-arginine, N-Benzoyl-Gly-Arg] (Bz-Gly-Arg-OH)
PfuCP [3]
  hydrolysis by PfuCP: active

## [Co+2] [Co^2+]
PfuCP [4]
  Kd: 13 ± 3 µM

## CC(NC(=O)OCc1ccccc1)C(=O)NC(CO)C(=O)O (stereo not drawn) [ZAS]
PfuCP [3]
  hydrolysis by PfuCP at longer digestion time: hydrolyzed; also recorded: observed

## CC(NC(=O)OCc1ccccc1)C(=O)NC(Cc1cnc[nH]1)C(=O)O (stereo not drawn) [ZAH]
PfuCP [3]
  hydrolysis by PfuCP at longer digestion time: hydrolyzed; also recorded: observed

## C[C@H](NC(=O)OCc1ccccc1)C(=O)N[C@@H](CC(N)=O)C(=O)O [ZAN] (Cbz-Ala-Asn-OH)
PfuCP [3]
  hydrolysis by PfuCP at longer digestion time: hydrolyzed; also recorded: observed

## C[C@H](NC(=O)OCc1ccccc1)C(=O)O [ZA, N-Cbz-Ala]
PfuCP [3]
  hydrolysis by PfuCP: no hydrolysis

## O=C(O)CN(CCN(CC(=O)O)CC(=O)O)CC(=O)O [EDTA, ethylenediaminetetraacetic acid]
[2]
  effect on carboxypeptidase activity in crude extract: completely abolished
PfuCP [1]
  effect on PfuCP activity: not observed
  reversibility of inhibition: fully reversible

## O=C(O)CNC(=O)c1ccccc1 [hippuric acid, Bz-Gly]
PfuCP [3]
  hydrolysis by PfuCP: activity

From patent publication US6967096B2, “Thermostable peptidase” (California Institute of Technology, priority 1998, dated 2005)
